Measurements as given in patent publication US6525001B1, “Substituted pyrimidine and pyridine herbicides” (Mid-American Commercialization Corporation, priority 1997, dated 2003).

Tests used:
Type in all cases: in vivo
[1] = test system: redroot pigweed (Amaranthus retroflexus); assay: Test C; design: key: 0 was no effect; 100 was complete control; conditions: PREEMERGENCE
[2] = test system: cocklebur (Xanthium strumarium); assay: Test C; design: key: 0 was no effect; 100 was complete control; conditions: PREEMERGENCE
[3] = test system: johnson grass (Sorghum halepense); assay: Test E pre-/postemergence/post directed; conditions: PREEMERGENCE
Text: (§1) Seeds, tubers, or plant parts of alexandergrass (Brachiaria plantaginea), annual bluegrass (Poa annua), arrowleaf sida (Sida rhombifolia), barnyardgrass (Echinochloa crus-galli), bermudagrass (Cynodon dactylon), citrus (Citrus sinensis), common chickweed (Stellaria media), common purslane (Portulaca oleracea), common ragweed (Ambrosia elatior), common groundsel (Senecio vulgaris), dallisgrass (Paspalum dilatatum), goosegrass (Eleusine indica), green foxtail (Setaria viridis), guineagrass (Panicum maximum), itchgrass (Rottboellia exaltata), johnson grass (Sorghum halepense), kochia (Kochia scoparia), large crabgrass (Digitaria sanguinalis), leafy spurge (Euphorbia esula), pitted morningglory (Ipomoea lacunosa), purple nutsedge (Cyperus rotundus), quackgrass (Agropyron repens), Russian thistle (Salsola kali), sandbur (Cenchrus echinatus), sourgrass (Trichachne insularis), Spanishneedles (Bidens bipinnata), sugarcane (Saccharum officinarum), surinam grass (Brachiaria decumbens) and tall mallow (Malva sylvestris) were planted into greenhouse pots of flats containing greenhouse planting medium. Plant species were grown grown in separate pots or individual compartments. Preemergence applications were made within one day of planting the seed or plant part. Postemergence applications were applied when the plants were in the two to four leaf stage (three to twenty cm).
(§2) Test chemicals were formulated in a non-phytotoxic solvent mixture which included a surfactant and applied preemergence to the soil surface, postemergence to the plants or as a post directed spray to plants and soil at the base of the target species. Untreated control plants and treated plants were placed in the greenhouse and visually evaluated for injury 13 to 21 days after herbicide application. Plant response ratings, summarized in Table E, are based on a 0 to 100 scale where 0 is no injury and 100 is complete control. A dash (−) response means no test result.

[4] = test system: common ragweed (Ambrosia elatior); assay: Test E pre-/postemergence/post directed; conditions: PREEMERGENCE
Text: as §1, §2

[5] = test system: common groundsel (Senecio vulgaris); assay: Test E pre-/postemergence/post directed; conditions: PREEMERGENCE, Rate 32 g/ha
Text: as §1, §2

[6] = test system: Spanishneedles (Bidens bipinnata); assay: Test E pre-/postemergence/post directed; conditions: PREEMERGENCE
Text: as §1, §2

[7] = test system: itchgrass (Rottboellia exaltata); assay: Test E pre-/postemergence/post directed; conditions: PREEMERGENCE
Text: as §1, §2

[8] = test system: pitted morningglory (Ipomoea lacunosa); assay: Test E pre-/postemergence/post directed; conditions: PREEMERGENCE
Text: as §1, §2

[9] = test system: surinam grass (Brachiaria decumbens); assay: Test E pre-/postemergence/post directed; conditions: PREEMERGENCE
Text: as §1, §2

[10] = test system: sandbur (Cenchrus echinatus); assay: Test E pre-/postemergence/post directed; conditions: PREEMERGENCE
Text: as §1, §2

[11] = test system: alexandergrass (Brachiaria plantaginea); assay: Test E pre-/postemergence/post directed; conditions: PREEMERGENCE
Text: as §1, §2

[12] = test system: bermudagrass (Cynodon dactylon); assay: Test E pre-/postemergence/post directed; conditions: PREEMERGENCE
Text: as §1, §2

[13] = test system: large crabgrass (Digitaria sanguinalis); assay: Test E pre-/postemergence/post directed; conditions: PREEMERGENCE
Text: as §1, §2

[14] = test system: field bindweed (Convolvulus arvensis); assay: Test C; design: key: 0 was no effect; 100 was complete control; conditions: PREEMERGENCE
[15] = test system: common purslane (Portulaca oleracea); assay: Test E pre-/postemergence/post directed; design: key: 0 is no effect; 100 is complete control; conditions: PREEMERGENCE
Method in brief: (§3)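 Injury was scored visually on a 0 to 100 scale (100 = complete control) 13 to 21 days after treatment of greenhouse-grown plants. Test chemicals, in a surfactant-containing non-phytotoxic solvent, were sprayed onto soil within a day of planting, onto plants at the two to four leaf stage, or directed at the base of the plants.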

[16] = test system: surinam grass (Brachiaria decumbens); assay: Test E pre-/postemergence/post directed; design: key: 0 is no effect; 100 is complete control; conditions: PREEMERGENCE
Method in brief: as §3

[17] = test system: goosegrass (Eleusine indica); assay: Test E pre-/postemergence/post directed; design: key: 0 is no effect; 100 is complete control; conditions: PREEMERGENCE
Method in brief: as §3

[18] = test system: large crabgrass (Digitaria sanguinalis); assay: Test E pre-/postemergence/post directed; design: key: 0 is no effect; 100 is complete control; conditions: PREEMERGENCE
Method in brief: as §3

[19] = test system: johnsongrass (Sorghum halepense); assay: Test C; conditions: PREEMERGENCE

Cc1cnc(-n2ccc(C(F)(F)F)n2)nc1Cc1cccc(OC(F)(F)F)c1 [Compound 42]
Plant response rating, Redroot pigweed ([1]; Rate 35 g/ha): 100
Plant response rating, Redroot pigweed ([1]; Rate 70 g/ha): 100
Plant response rating, Redroot pigweed ([1]; Rate 140 g/ha): 100
Plant response rating, Cocklebur ([2]; Rate 35 g/ha): 0
Plant response rating, Cocklebur ([2]; Rate 140 g/ha): 60
Plant response rating, Johnsongrass ([3]; Rate 32 g/ha): 10
Plant response rating, Johnsongrass ([3]; Rate 64 g/ha): 90
Plant response rating, Johnsongrass ([3]; Rate 125 g/ha): 90
Plant response rating, Johnsongrass ([3]; Rate 250 g/ha): 95
Plant response rating, Com. ragweed ([4]; Rate 32 g/ha): 50
Plant response rating, Com. ragweed ([4]; Rate 64 g/ha): 75
Plant response rating, Com. ragweed ([4]; Rate 125 g/ha): 90
Plant response rating, Com. ragweed ([4]; Rate 250 g/ha): 90
Plant response rating, Com. groundsel [5]: 90
Plant response rating, Spanishneedles ([6]; Rate 32 g/ha): 20
Plant response rating, Spanishneedles ([6]; Rate 64 g/ha): 20
Plant response rating, Spanishneedles ([6]; Rate 250 g/ha): 90
Plant response rating, Itchgrass ([7]; Rate 32 g/ha): 35
Plant response rating, Itchgrass ([7]; Rate 64 g/ha): 65
Plant response rating, Itchgrass ([7]; Rate 125 g/ha): 80
Plant response rating, Itchgrass ([7]; Rate 250 g/ha): 70
Plant response rating, P. morninglory ([8]; Rate 64 g/ha): 30
Plant response rating, P. morninglory ([8]; Rate 125 g/ha): 65
Plant response rating, P. morninglory ([8]; Rate 250 g/ha): 75
Plant response rating, Surinam grass ([9]; Rate 32 g/ha): 40
Plant response rating, Surinam grass ([9]; Rate 64 g/ha): 50
Plant response rating, Sandbur ([10]; Rate 64 g/ha): 40
Plant response rating, Sandbur ([10]; Rate 125 g/ha): 70
Plant response rating, Sandbur ([10]; Rate 250 g/ha): 70
Plant response rating, Alexandergrass ([11]; Rate 32 g/ha): 20
Plant response rating, Alexandergrass ([11]; Rate 64 g/ha): 40
Plant response rating, Alexandergrass ([11]; Rate 125 g/ha): 90
Plant response rating, Alexandergrass ([11]; Rate 250 g/ha): 90
Plant response rating, Bermudagrass ([12]; Rate 32 g/ha): 90
Plant response rating, Bermudagrass ([12]; Rate 64 g/ha): 95
Plant response rating, Bermudagrass ([12]; Rate 125 g/ha): 98
Plant response rating, Bermudagrass ([12]; Rate 250 g/ha): 98
Plant response rating, Large crabgrass ([13]; Rate 32 g/ha): 50
Plant response rating, Large crabgrass ([13]; Rate 64 g/ha): 90
Plant response rating, Field bindweed ([14]; Rate 35 g/ha): 95
Plant response rating, Field bindweed ([14]; Rate 70 g/ha): 100
Plant response rating, Field bindweed ([14]; Rate 140 g/ha): 100
Plant response rating, Com. purslane ([15]; Rate 32 g/ha): 100
Plant response rating, Com. purslane ([15]; Rate 64 g/ha): 100
Plant response rating, Com. purslane ([15]; Rate 125 g/ha): 100
Plant response rating, Com. purslane ([15]; Rate 250 g/ha): 100
Plant response rating, Surinam grass ([16]; Rate 125 g/ha): 100
Plant response rating, Surinam grass ([16]; Rate 250 g/ha): 100
Plant response rating, Goosegrass ([17]; Rate 32 g/ha): 98
Plant response rating, Goosegrass ([17]; Rate 64 g/ha): 100
Plant response rating, Goosegrass ([17]; Rate 125 g/ha): 100
Plant response rating, Goosegrass ([17]; Rate 250 g/ha): 100
Plant response rating, Large crabgrass ([18]; Rate 125 g/ha): 100
Plant response rating, Large crabgrass ([18]; Rate 250 g/ha): 100
Plant response rating, Johnsongrass ([19]; Rate 35 g/ha): 70
Plant response rating, Johnsongrass ([19]; Rate 70 g/ha): 70
Plant response rating, Johnsongrass ([19]; Rate 140 g/ha): 85
